Measured values taken from US20100285509A1, “Melanoma-Associated Endogenous Retrovirus (MERV) Derived Peptide Sequences And Their Therapeutic/Diagnostic Use” (priority 2005, published 2010).
Where no end group is shown, it is not given here.

Tests used:
Format in all cases: binding, human
melanoma sera pool [1] = assay: Epitope screening ELISA of biotinylated peptides with melanoma sera pool; details: FIG. 2
Protocol: FIG. 2: Selected candidate peptides by Epitope prediction were tested with a melanoma sera pool and a reference sera pool respectively. The mouse derived control peptides K1 (Biotin-SGSG-KPLAQ-NH2) and K2 (Biotin-SGSG-GLAQ-NH2) were used as negative and positive control peptides. ELISA readout of patient sera pool (black bars) given as absorbance determined at 405 nm. All given A405 nm values refer to the measured A405 nm value of each sample minus the blank.
Serum specimens were collected from melanoma patients (diagnosis confirmed by histopathology) at the Department of Dermatology, Medical University of Vienna, Austria. Staging of patients and according classification of sera followed the 2001 US Joint Committee on Cancer guidelines (Balch 2001). Usage of patient sera was approved by the ethical committee of the Medical University of Vienna, confidentially of the study subjects has been protected by respective sample coding. Sera from healthy donors served as negative controls. All sera were stored at −20° C. immediately after blood withdrawal. Melanoma patient derived sera pools and respective reference sera pools from healthy subjects were used for epitope screening and further peptide testing.
Streptavidin-coated 96-well microtiter plates (Mimotopes Pty Ltd., Australia) were blocked with 200 μl/well of 2% bovine albumine (Sigma-Aldrich) in PBST (PBS [0.1 M sodium phosphate, 0.15 M NaCl, pH 7.0]+0.1% v/v Tween20 (PBST)) over night at 4° C. The wells were then washed four times with PBST and incubated with 100 μl/well of 1:500 diluted biotinylated peptides for 2 hours at room temperature. 2 wells per plate were incubated with PBST in the absence of peptide (blank wells). Plates were washed 4 times with PBST. Subsequently, 100 μl of a melanoma-sera pool, diluted 1:40 in 1% bovine albumine/PBST and a reference serum pool (1:40) were added to each well and incubated for 2 h at room temperature. The plate was washed 4 times with PBST and incubated with 100 μl/well of the secondary antibody: goat anti-human IgG (h+l) antibody alkaline-phosphatase conjugated (BETHYL Laboratories, Inc., USA). Detection antibody was diluted 1:1000 in blocking solution and incubated for 1 hour. After 6 washing steps with PBST, 200 μl of a 1.0 mg/ml p-Nitrophenylphosphat substrate solution in 0.2 M Tris-buffer (Sigma-Aldrich) was added to each well. Absorbance was measured on a BDSL Immunoskan PLUS at 405 nm.
During initial screening of various peptides reactive peptides to the melanoma patient derived sera pool were selected and also validated by determining the reactivity to the reference sera pool obtained from healthy volunteers. […] These peptides were tested to determine the experimental antigenicity.

melanoma sera pool [2] = assay: Peptide testing ELISA, unbiotinylated peptides coated on Nunc Maxisorp F plates; details: for absorbance (A405 nm): melanoma sera pool dilution 1:50
Protocol: FIG. 5: Reactivity of serum antibodies with 2 MERV specfic partial overlapping peptides (GHB-G1 and GHB-H1) and 1 autoimmune-related peptide (GHB-17′) tested with 3 different melanoma-sera and reference sera pool dilutions respectively. An HIV peptide was used as negative control peptide. All given A405 nm values refer to the measured A405 nm value of each sample minus the blank.
NUNC Maxisorp F plates were coated with 1.0 μg peptide/well in 100 μl coating buffer (0.1 M sodium carbonate buffer, pH 9.5). 1 well per plate was coated with 100 μl of coating buffer without antigen (blank well). Plates were incubated over night at 4° C. Then plates were washed four times with PEST. Unspecific binding sites were blocked with 200 μl/well of 2% bovine albumine (Sigma-Aldrich) in PBST (PBS+0.1% v/v Tween20 (PBST)) for 1 hour at room temperature. The plates were washed 4 times with PBST. For the assay 100 μl/well of three different sera pool-dilutions (1:50, 1:200, 1:1600) diluted in 1% bovine albumine/PBST were added and incubated for 2 h at room temperature. Plates were washed 4 times with PBST and incubated with 100 μl/well of the secondary antibody: goat anti-human IgG (h+l) antibody alkaline-phosphatase conjugated, obtained from BETHYL Laboratories, Inc., USA (detection antibody was diluted 1:1000 in blocking solution) for 1 hour. After additional 6 times washing step with PBST, color was developed with 200 μl/well of a 1.0 mg/ml p-Nitrophenylphosphat substrate solution in 0.2 M Tris-buffer (Sigma-Aldrich). Absorbance was measured on a BDSL Immunoskan PLUS at 405 nm.
The peptides were tested with the same sera pools as given for the experiments above. As negative control peptide an HIV-derived peptide ([…]) with 1 μg/well was used.
Herve et al. characterise retroviral peptides in the context of autoimmune diseases. […] All three peptides were tested with three melanoma sera pool dilutions ([…], 1:200 and 1:1600). Peptides were coated on Nunc Maxisorp F plates and used to capture serum antibodies, which were then detected using goat anti-human IgG antibodies as shown in FIG. 5. […] GHB-G1 gave a signal of 1.50 even at a melanoma: sera pool dilution 1:200.

[3] = system: serum samples from melanoma patients; assay: Optimised ELISA on individual serum samples from melanoma patients; details: 31 melanoma serum samples; positive = value of 0.39 or above
Protocol: NUNC Polysorp F Peptide Immobiliser plates were coated with 0.125 μg peptide/well in 100 μl coating buffer ((0.1 M sodium carbonate buffer, pH 9.5). Plates were incubated over night at 4° C. Plates were then washed four times with PBST and unspecific binding sites were blocked with 200 μl/well of 2% bovine albumine (Sigma-Aldrich) in PBST (PBS+0.1% v/v Tween20 (PBST)) for 1 hour at room temperature. The plates were washed 4 times with PBST. For the assay 100 μl/well of serial-dilutions of the sera (initial dilution 1:200 in 1% bovine albumine/PBST were added and incubated for 2 h at room temperature. Plates were washed 4 times with PEST and incubated with the secondary antibody (100 μl/well). As secondary antibody an alkaline-phosphatase conjugated goat anti-human IgG (h+1) (BETHYL Laboratories, Inc., USA) diluted 1:1000 in blocking solution was used. Incubation period was 1 hour. After another 6 washing steps with PBST, the substrate was added (1.0 mg/ml p-Nitrophenylphosphat Sigma-Aldrich) in 0.2 M Tris-buffer 200 μl/well) Absorbance was measured on a BDSL Immunoskan PLUS at 405 nm.
For analysis of serum samples from melanoma patients, Nunc Polysorp Immobilizer Amino plates were used. […] 16 serum samples from healthy individuals served as controls to establish a negative treshold, as calculated by the average absorbance plus three standard deviations. […]

melanoma sera pool [4] = assay: Epitope mapping ELISA of 25 overlapping env-peptides (FIG. 4); details: A405 nm melanoma sera pool minus reference sera pool
From the text: FIG. 4: Epitope mapping of 25 overlapping env-peptides tested with a patient sera pool and a reference sera pool as described above. The first bar represents amino acid 204-220, the second bar represents amino acid 205-221, etc. Del A405 nm refers to the measured A405 nm values of the melanoma sera pool minus the A405 nm values of the reference sera pool of each peptide. One experiment of two performed is shown. Mean values from duplicate trials are shown.
Streptavidin-coated 96-well microtiter plates (Mimotopes Pty Ltd., Australia) were blocked with 200 μl/well of 2% bovine albumine (Sigma-Aldrich) in PBST (PBS [0.1 M sodium phosphate, 0.15 M NaCl, pH 7.0]+0.1% v/v Tween20 (PBST)) over night at 4° C. The wells were then washed four times with PBST and incubated with 100 μl/well of 1:500 diluted biotinylated peptides for 2 hours at room temperature. 2 wells per plate were incubated with PBST in the absence of peptide (blank wells). Plates were washed 4 times with PBST. Subsequently, 100 μl of a melanoma-sera pool, diluted 1:40 in 1% bovine albumine/PBST and a reference serum pool (1:40) were added to each well and incubated for 2 h at room temperature. […] Absorbance was measured on a BDSL Immunoskan PLUS at 405 nm. […]

Sequence	reactivity ranking among the 46 tested peptides (melanoma sera pool [1])	absorbance (A405 nm) (melanoma sera pool [2]; FIG. 5)	also measured
EMQRKAPPRRRRHRNRA (also: biotinylated (site not given here)) [Peptide A1, Env aa 5-21]	most reactive		
FRPKGKPCPKEIPKESK (also: biotinylated (site not given here)) [Peptide H1, Env aa 220-236]	most reactive	above 0.50	
PAELQYRPPPESQYGYP (also: biotinylated (site not given here)) [Peptide E3, Gag aa 219-235]	most reactive		
PWGWGEKGISTPRPKIV (also: biotinylated (site not given here)) [Peptide E2, Env aa 312-328]	most reactive		
SYQRSLKFRPKGKPCPKEIP (Melanoma Associated Endogenous Retrovirus) [SEQ ID NO 69, unbiotinylated 20-mer covering peptides 10-13, env aa 213-232]			reactivity compared to unbiotinylated 17-mer peptide G1 (melanoma sera pool [2]; unbiotinylated peptides, independent experiment): did not exhibit a significant improvement
YQRSLKFRPKGKPCPKE (Melanoma Associated Endogenous Retrovirus) [Peptide G1, Env aa 214-230]	most reactive	~1.50	absorbance signal (A405 nm) (melanoma sera pool [2]; melanoma sera pool dilution 1:200, FIG. 5): 1.50; melanoma sera that did not recognise the epitope [3]: 16; melanoma serum samples reacting positive [3]: 15 out of the 31; reactivity (Del A405 nm) (melanoma sera pool [4]): lower absorbance in the assay than the three neighbour peptides
